From patent publication US8207314B2, “Tumor antigens for prevention and/or treatment of cancer” (Sanofi Pasteur Limited, priority 2003, dated 2012)

Tests used:
[1] = tested on: Human PBMC from an HLA-A2.1 positive donor; assay: IFN-γ ELISPOT of human T cells activated with BFY3 peptide pools and deconvolution to single peptides; format: cell-based; settings: BFY3 nonamer peptides; listing = result
Source text: Human PBMC from an HLA-A2.1 positive donor designated AP31 were activated with autologous dendritic cells pulsed with different pools of 9-mer peptides from the BFY3 antigen (see Table I for list). The activated T cells were re-stimulated after 12 days with activated autologous CD40-ligand-activated B cells pulsed with the same respective peptide pools for another 8 to 10 days. This secondary activation was repeated 2 more time for a total of 4 stimulations. The activated T cells were isolated after the 4th stimulation and subjected to ELISPOT analysis for human IFN-γ production against their respective BFY3 peptide pools as shown. The blue bars show reactivity against the BFY3 peptide pools and the red bars are for an HLA-A2.1-binding HIV peptide as a negative control. Standard deviations are indicated. The experiment was repeated 2 times on activated T cells from different rounds of peptide stimulation with the similar results (FIG. 17A).
The BFY3 peptide pools were deconvoluted and studied in IFN-γ ELISPOT assays. Stimulation was performed as described earlier for the other antigens described. After 4 rounds of stimulation, the T cells from each culture were harvested and subjected to ELISPOT analysis for IFN-γ production with each individual peptide in each pool. FIG. 17B illustrates individual peptide reactivity for each specific pool.

[2] = tested on: targets pulsed with corresponding peptide pools; assay: CTL killing of targets pulsed with BFY3 peptide pools or peptides; format: cell-based, human; settings: for Peptides eliciting CTL activity (peptide pulsed targets): BFY3 nonamer peptides, listing = result; for recognition of single peptides by CTL: BFY3 peptides, peptide-pulsed targets
Protocol: (§1) In addition to ELISPOT analysis, human T cells activated by BFY3 peptides were assayed for reactivity. Ten pools of peptides consisting often peptides per pool used to generate CTL. These 10 groups of effectors used to kill targets pulsed with corresponding peptide pools. […]

[3] = tested on: HLA-A*0201 human T cells; assay: IFN-γ ELISPOT of human T cells activated with BFA5/NYBR-1 peptide pools and single peptides; format: cell-based; settings: for IFN-γ secretion in T cells from both donors: donors AP10 and AP31; for BFA5 peptides eliciting high IFN-γ release (>200 spots/100,000 cells): listing = result
Protocol: A library of 100 peptides from the BFA5/NYBR-1 coding sequence that are predicted to be medium to high binders to HLA-A*0201 were designed using Rammensee and Parker algorithms. The library was sub-divided into 10 pools of ten peptides (see Table XI), and each pool was used to activate 10 different T cell cultures after pulsing peptides on to mature autologous dendritic cells.
ELISPOT analysis was performed on human T-cell cultures activated through four rounds of stimulation with each pool of BFA5 peptides. In FIG. 13A, the numbers under the X-axis indicate the number of each peptide pool (1-10). Reactivity against a CMV pp65 peptide, and a Flu matrix peptide were used as positive controls for T-cell activation in the experiments. Each experiment was performed with PBMC and dendritic cells from a single HLA-A*0201^+ donor designated as “AP10”. […] Similar results were obtained for both BFA4 and BFA5/NYBR-1 with a different HLA-A*0201. […] Cultures having a reading of 600 spots have more than this number of spots.
A large number of the BFA5 peptide pools of are reactive as shown by the high levels of IFN-γ production (FIG. 13A). Each reactive peptide pool was then separated into individual peptides and analyzed for immunogenicity using ELISPOT analysis to isolate single reactive BFA5 peptides. […] Similar results were obtained in two independent PBMC culture experiments.

[4] = tested on: peptide-loaded T2 cells; assay: 51Cr-release CTL assay with BFA5 peptide-activated human T cells; format: cell-based; settings: for CTL activity in T cells from both donors: donors AP10 and AP31; for BFA5 peptides inducing CTL lysis of pulsed cells: Donor AP10, listing = result
Protocol: In addition to ELISPOT analysis, human T cells activated by BFA5 peptides were assayed to determine their ability to function as CTL. The cells were activated using peptide-pulsed dendritic cells followed by CD40 ligand-activated B cells (5 rounds of stimulation). The experiment shown was performed with isolated PBMC from HLA-A*0201^+ donor AP31. Isolated T cells were tested in ^51Cr-release assays using peptide-loaded T2 cells. The % specific lysis at a 10:1, 5:1, and 1:1 T-cell to target ratio is shown for T2 cells pulsed with either pools of BFA5/NYBR-1 peptides or with individual peptides. […] CTL activity (percent specific lysis) induced by the control HIV peptide was generally <10%. Similar results were obtained with another PBMC donor expressing HLA-A*0201 (AP10). […]

[5] = tested on: BFA4; assay: Rabbit antibody titers after immunization with BFA4 22-mer peptides; format: in vivo
Source text: For monitoring purposes, rabbit anti-BFA4 polyclonal antibodies were generated. Six peptides (22-mers) were designed and synthesized to elicit antibody response to BFA4, as shown below:
Rabbits were immunized with the peptides, serum was isolated, and the following antibody titers were observed: […]

[6] = tested on: peptide-loaded human T2 lymphoma cell targets; assay: CTL killing of BFA4 peptide-pulsed target cells; format: cell-based; settings: single BFA4 peptides, listing = result
[7] = tested on: CosA2 cells transfected with BFY3; assay: CTL killing of BFY3-transfected cells; format: cell-based; settings: CTL generated from BFY3 peptide pools
Protocol: as §1

[8] = tested on: Non-transfected CosA2 cells; assay: Zeocin selection of non-transfected cells; format: cell-based; settings: for confluency of surviving cells: three weeks
Protocol: A stable transfection study was initiated to obtain stable clones of BFA4 expressing COS A2 cells. These cells are useful for in vitro stimulation assays pcDNA 3.1 zeo^R/BFA4 (2.5 μg and 20 μg), and pcDNA 3.1 zeo^R/BFA4/MycHis tag (2.5 μg) were used to study expression of BFA4). pGL3 Luciferase (2.5 μg) was used as a control vector to monitor transfection efficiency. The Gene porter reagent was used to facilitate transfection of DNA vectors. After 48 h post-transfection, whole cell extract were prepared by scraping cells in the cell lysis reagent (200 μl) and 1 cycle of freeze-thaw at −20° C./37° C. for first experiment. Transfected cells obtained from the second experiment were trypsinized, frozen stock established and cells were plated in increasing concentrations of Zeocin (0, 250, 500, 750 and 1000 μg/ml). Non-transfected CosA2cells survived at 60-80% confluency for three weeks at 100 μg/ml (Zeocin) and 10% confluency at 250 μg/ml (Zeocin).

[9] = first-listed rabbit of the pair
[10] = second-listed rabbit of the pair

## SHGFGSPAV [CLP 3407]
[1]
  Peptides eliciting strong IFN-γ ELISPOT activity: SHGFGSPAV

## NVTLLTSLV [CLP 3380]
[1]
  Peptides eliciting strong IFN-γ ELISPOT activity: NVTLLTSLV

## KYKVTVAEV [CLP 3362]
[2]
  Peptides eliciting CTL activity (peptide pulsed targets): KYKVTVAEV
  recognition of single peptides by CTL: Moderately recognized
[1]
  Peptides eliciting strong IFN-γ ELISPOT activity: KYKVTVAEV

## LMDMQTFKA [CLP 2983]
[3]
  IFN-γ secretion in T cells from both donors: induce
[4]
  CTL activity in T cells from both donors: induce

## HLARDFGYV [CLP 3387]
[2]
  Peptides eliciting CTL activity (peptide pulsed targets): HLARDFGYV
  recognition of single peptides by CTL: strongly recognized
[1]
  Peptides eliciting strong IFN-γ ELISPOT activity: HLARDFGYV

## LLGGVLRRA [CLP 3369]
[2]
  Peptides eliciting CTL activity (peptide pulsed targets): LLGGVLRRA
  recognition of single peptides by CTL: Moderately recognized
[1]
  Peptides eliciting strong IFN-γ ELISPOT activity: LLGGVLRRA

## YLTEALKAM [CLP 3415]
[1]
  Peptides eliciting strong IFN-γ ELISPOT activity: YLTEALKAM

## VAKPSEKNSNKSIPALQSSDSG [CLP2591]
[5]; [9]
  Titer (Bleed 2): 400000, 400000
  Titer (Final Bleed): 320000, 320000
[5]; [10]
  Titer (Bleed 2): 400000, 400000
  Titer (Final Bleed): 320000, 320000

## FTTPDVDVL [CLP 2468]
[6]
  Strong CTL Killing (listed as highly immunoreactive peptide): FTTPDVDVL

## YVPYPTFNL [CLP 2509]
[6]
  Strong CTL Killing (listed as highly immunoreactive peptide): YVPYPTFNL

## SLPHAIEEV [CLP 3343]
[1]
  Peptides eliciting strong IFN-γ ELISPOT activity: SLPHAIEEV

## HAIEEVPHV [CLP 3344]
[2]
  Peptides eliciting CTL activity (peptide pulsed targets): HAIEEVPHV
  recognition of single peptides by CTL: strongly recognized
[1]
  Peptides eliciting strong IFN-γ ELISPOT activity: HAIEEVPHV
[7]
  killing of CosA2 cells transfected with BFY3 by CTL: responsible for this cytotoxicity

## ILIDSGADI [CLP 3005]
[3]
  IFN-γ secretion in T cells from both donors: induce
[4]
  CTL activity in T cells from both donors: induce

## ATDGMKVSI [CLP 3054]
[3]; Donor AP10
  BFA5 peptides eliciting high IFN-γ release (>200 spots/100,000 cells): ATCGMKVSI
[4]
  BFA5 peptides inducing CTL lysis of pulsed cells: ATCGMKVSI

## ILSVVAKLL [CLP 3011]
[3]
  IFN-γ secretion in T cells from both donors: induce
[4]
  CTL activity in T cells from both donors: induce

## GLHRNNAQV [CLP 2520]
[6]
  Strong CTL Killing (listed as highly immunoreactive peptide): GLHRNNAQV

## ELCSVRLTL [CLP 3050]
[3]
  IFN-γ secretion in T cells from both donors: induce
[4]
  CTL activity in T cells from both donors: induce

## ALRICDIEL [CLP 3043]
[3]; Donor AP10
  BFA5 peptides eliciting high IFN-γ release (>200 spots/100,000 cells): ALRIQDIEL

## RNMLAFSFP [CLP 2425]
[6]
  Strong CTL Killing (listed as highly immunoreactive peptide): RNMLAFSFP

## ASLGLLTPV [CLP 2482]
[6]
  Strong CTL Killing (listed as highly immunoreactive peptide): ASLGLLTPV

## HLARPIYGL [CLP 2486]
[6]
  Strong CTL Killing (listed as highly immunoreactive peptide): HLARPIYGL

## KSQIEPAFH [CLP 3037]
[3]; Donor AP31
  BFA5 peptides eliciting high IFN-γ release (>200 spots/100,000 cells): KSQEPAFHI

## RLNPEALQA [CLP 2499]
[6]
  Strong CTL Killing (listed as highly immunoreactive peptide): RLNPEALQA

## SQYSGQLKV [CLP 3015]
[3]
  IFN-γ secretion in T cells from both donors: induce
[4]
  CTL activity in T cells from both donors: induce

## KAANVTLLT [CLP 3378]
[2]
  Peptides eliciting CTL activity (peptide pulsed targets): KAANVTLLT
  recognition of single peptides by CTL: strongly recognized
[1]
  Peptides eliciting strong IFN-γ ELISPOT activity: KAANVTLLT

## MVRKKNPPLRNVASEGEGQILE [CLP2589]
[5]; [9]
  Titer (Bleed 2): 800000
  Titer (Final Bleed): 2560000, 2560000
[5]; [10]
  Titer (Bleed 2): 1600000
  Titer (Final Bleed): 2560000, 2560000

## MLWKLTDNI [CLP 3320]
[2]
  Peptides eliciting CTL activity (peptide pulsed targets): MLWKLTDNI
  recognition of single peptides by CTL: strongly recognized
[1]
  Peptides eliciting strong IFN-γ ELISPOT activity: MLWKLTDNI
[7]
  killing of CosA2 cells transfected with BFY3 by CTL: responsible for this cytotoxicity

## YLLHENQML [CLP 2997]
[3]; Donor AP10
  BFA5 peptides eliciting high IFN-γ release (>200 spots/100,000 cells): YLLHENCML
[3]; Donor AP31
  BFA5 peptides eliciting high IFN-γ release (>200 spots/100,000 cells): YLLHENCML
[4]
  BFA5 peptides inducing CTL lysis of pulsed cells: YLLHENCML

## ANGASKEKTKAPPNVKNEGPLNV [CLP2594]
[5]; [9]
  Titer (Bleed 2): 409600, 409600
  Titer (Final Bleed): 320000, 320000
[5]; [10]
  Titer (Bleed 2): 409600, 409600
  Titer (Final Bleed): 320000, 320000

## NLFGGVVNP [CLP 3351]
[1]
  Peptides eliciting strong IFN-γ ELISPOT activity: NLFGGVVNP

## SPKATEETGQAQSGQANCQGLS [CLP2590]
[5]; [9]
  Titer (Bleed 2): 12800
  Titer (Final Bleed): 40000, 40000
[5]; [10]
  Titer (Bleed 2): 6400
  Titer (Final Bleed): 40000, 40000

## NHLQGSDGQQSVKESKEHSCTK [CLP2592]
[5]; [9]
  Titer (Bleed 2): 25600
  Titer (Final Bleed): 80000
[5]; [10]
  Titer (Bleed 2): 12800
  Titer (Final Bleed): 40000

## Cc1c(N)nc([C@H](CC(N)=O)NC[C@H](N)C(N)=O)nc1C(=O)N[C@H](C(=O)N[C@H](C)[C@@H](O)[C@H](C)C(=O)N[C@H](C(=O)NCCC1=N[C@@H](c2nc(C(=O)NCCCCN=C(N)N)cs2)CS1)[C@@H](C)O)[C@@H](O[C@@H]1O[C@@H](CO)[C@@H](O)[C@H](O)[C@@H]1O[C@H]1O[C@H](CO)[C@@H](O)[C@H](OC(N)=O)[C@@H]1O)c1cnc[nH]1 [Zeocin]
[8]; 100 μg/ml
  confluency of surviving cells: 60-80%
[8]; 250 μg/ml
  confluency of surviving cells: 10%
[8]; 500-1000 μg/ml, after three weeks
  live cells: live cells were not observed

## KLDKIGLNL [CLP 3372]
[2]
  Peptides eliciting CTL activity (peptide pulsed targets): KLDKIGLNL
  recognition of single peptides by CTL: strongly recognized
[1]
  Peptides eliciting strong IFN-γ ELISPOT activity: KLDKIGLNL

## MLAFSFPAA [CLP 2427]
[6]
  Strong CTL Killing (listed as highly immunoreactive peptide): MLAFSFPAA

## NMLAFSFPA [CLP 2426]
[6]
  Strong CTL Killing (listed as highly immunoreactive peptide): NMLAFSFPA

## NACGLYQKL [CLP 2495]
[6]
  Strong CTL Killing (listed as highly immunoreactive peptide): NACGLYQKL

## LNASLLGGV [CLP 3366]
[1]
  Peptides eliciting strong IFN-γ ELISPOT activity: LNASLLGGV

## SCLTHFNLI [CLP 3403]
[1]
  Peptides eliciting strong IFN-γ ELISPOT activity: SCLTHFNLI

## NGEQIIRRRTRKRLNPEALQAE [CLP2593]
[5]; [9]
  Titer (Bleed 2): 3200000
  Titer (Final Bleed): 2560000
[5]; [10]
  Titer (Bleed 2): 51200
  Titer (Final Bleed): 160000
